Target: JNK1/TMR-JIPtide (Homo sapiens, UniProt P45983)
Type: binding
Settings: relative to apo-JNK1

JNK1/TMR-JIPtide, sequence (P45983 1-384 isoform P45983-2, species assumed): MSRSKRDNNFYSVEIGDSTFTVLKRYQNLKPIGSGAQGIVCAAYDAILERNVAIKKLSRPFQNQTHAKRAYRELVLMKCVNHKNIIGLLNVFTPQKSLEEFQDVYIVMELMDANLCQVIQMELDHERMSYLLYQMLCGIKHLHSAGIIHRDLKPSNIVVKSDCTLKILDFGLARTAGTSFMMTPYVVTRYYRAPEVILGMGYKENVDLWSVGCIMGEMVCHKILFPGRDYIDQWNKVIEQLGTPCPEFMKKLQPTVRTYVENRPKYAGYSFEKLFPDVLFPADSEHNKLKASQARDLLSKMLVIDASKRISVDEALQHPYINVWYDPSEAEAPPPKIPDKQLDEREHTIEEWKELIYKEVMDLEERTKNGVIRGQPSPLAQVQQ

effect of ATP-binding site ligand on JNK1 affinity for JIPtide (in words): two-fold more tightly
SMILES: Nc1ncnc2c1ncn2[C@@H]1O[C@H](COP(=O)(O)OP(=O)(O)OP(=O)(O)O)[C@@H](O)[C@H]1O [ATP, adenosine triphosphate]

— publication PMC6338552 (Biochemistry, 2018)
